Results: patent US8901314B2, “Substituted pyrazoles as N-type calcium channel blockers” (Janssen Pharmaceutica NV, priority 2012, dated 2014)

How the values were obtained:
[1] = tested on: Cav2.2 (N-type calcium channel; α1B, α2δ and β3 subunits stably expressed in HEK293 cells); assay: Automated electrophysiology assay (QPatch-HT patch clamp); type: cell-based; settings: 0.1 μM; for QPatch % Inhibition, High Freq: high frequency stimulation (15th pulse of 5 Hz train); for QPatch % Inhibition, Low Freq: low frequency stimulation (1st pulse of train)
Description: The Cav2.2 (α1B) subunit (GenBank accession no. AAO53230; supplied by Lipscombe's laboratory at Brown University) was subcloned into pcDNA3.1, whereas the α2δ (M86621) and β3 (M88751) subunits were subcloned into pBudCE4.1 vectors. Stable cell lines expressing all three subunits were generated according to the following procedure: 1) HEK293 cells were transfected with α2δ−1/β3 expression constructs resulting in a stable cell line expressing α2δ−1 and β3 subunits that were selected under 200 μg/mL of Zeocin; 2) a stable cell line expressing α2δ−1/β3 subunits in high quantity as evidenced in its Western blots was isolated from the colony and purified; 3) this cell line was further transfected with Cav2.2 expression constructs, from which cells were subsequently selected under 400 μg/mL G418 and 200 μg/mL Zeocin; 4) these cells were clonally isolated, expanded and screened by Western blot analysis for expressing all three subunits
Cultures of cells stably expressing Cav2.2 were maintained at 37° C. in low glucose-containing Dulbecco's Modified Eagle medium (low glucose) under a 5% CO2 atmosphere. The medium was supplemented with 10% fetal bovine serum, 2 mM L-glutamine, 100 IU/mL penicillin, […] streptomycin, 400 μg/mL G418 and 200 μg/mL Zeocin.
High-throughput automated patch clamp system experiments were carried out using instruments (QPatch-HT) available from Sophion Biosciences, Inc. North Brunswick, N.J. Cells were grown in T175 flasks to 50%-90% confluence were enzymatically treated with Deatchin (Genlantis, San Diego, Calif., U.S.A.), centrifuged, rinsed and resuspended in 293 SFM II media (Life Technologies, Grand Island, N.Y., U.S.A.) supplemented with 25 mM HEPES (Sigma-Aldrich, St. Louis, Mo., U.S.A.) to a concentration of 2−3×10^6 cells/mL. Cells were added to automated cell preparation station on the QPatch-HT (Sophion Biosciences, North Brunswick, N.J., U.S.A.) and following a 10- to 30-min recovery period with gentle stirring, the assay protocol was initiated. During the automated cell preparation, cells were collected, centrifuged and resuspended in an extracellular (EC) solution containing 132 mM NaCl, 1.8 mM CaCl2, 5.4 mM KCl, 0.8 mM MgCl2, 10 mM glucose, and 10 mM HEPES (pH=7.4), adjusted with sucrose to 315 m0sm. The QPlate was primed with an intracellular solution containing 135 CsCl, 10 mM EGTA, 4 MgATP, 0.3 NaGTP, and 20 mM HEPES (pH=7.2), adjusted to approximately 290 m0sm with deionized water and the EC solution. Cells were added to the prepared QPlate wells by robotic pipettes of the QPatch-HT.
For cells determined to be in stable whole-cell patch clamp, the EC solution was replaced with a barium (Ba)/triethylammonium (TEA) solution containing 140 mM TEA-Cl, 10 mM BaCl2, 0.8 mM MgCl2, 10 mM glucose, and 10 mM HEPES (pH=7.4). High (40 mM) BaCl2 concentrations were made with adjustments of TEA-Cl (90 mM) to maintain the osmolarity. From a resting potential of −80 mV, a train of depolarizing pulses (15 pulses at 5 Hz, +20 mV) was delivered to the cell once every 30 sec for eight trains (4 min total), and the resulting currents were measured during a control period (no compound). This protocol was repeated for each subsequent addition of control buffer with or without compound (three periods total, each with four trains). The current generated in the 1st and 15th pulses of the last train of each period in the presence of each drug concentration was normalized to the current generated during the control period at the respective pulses (representing low- and high frequency stimulation, respectively). Data from both the second and third drug application period were analyzed for each cell. A final addition of Ba/TEA solution containing 60-100 uM CdCl2 was made to block all N-type current and “zero” the currents for each cell. A buffer/compound additions were made using a “spitting” feature of the QPatch-HT, which added three repretitions of 5 μL solution at the beginning of each recording period.

[2] = target: α1B (Cav2.2), β3 and α2δ subunits of the N-type calcium channel (stable HEK cell line) (Rattus norvegicus, UniProt Q02294); assay: Calcium-dye indicator assay (FDSS, KCl depolarization); type: cell-based; settings: calcium mobilization response to 50 mM KCl; six-point concentration-response
Description: A stable cell line (HEK parent) co-expressing the α1B (Cav2.2), β3 and α2δ subunits of the N-type calcium channel subunits was used. These cells were routinely grown as monolayers in low glucose-containing Dulbecco's Modified Eagle Medium supplemented with 10% FBS, 2 mM L-glutamine, 100 I.U./mL penicillin, 100 μg/mL streptomycin, 400 μg/mL G418 and 200 μg/mL Zeocin (split ratio=1:5). Cells were maintained in 5% CO2 at 37° C. Compounds of Formula (I) were prepared as 10 mM stocks in DMSO from neat compound, if available. Otherwise, the 5 or 10 mM DMSO stock solutions provided in-house were used.
Calcium mobilization responses to KCl depolarization were evaluated by measuring the intensity of calcium-mediated fluorescent signal in the presence of BD Calcium Assay Dye (BD Biosciences, Franklin Lakes, N.J., U.S.A.), utilizing a Functional Drug Screening System (FDSS) by Hamamatsu Corporation (Bridgewater, N.J., U.S.A.).
Twenty-four hours prior to assay, cells were seeded in clear-base poly-D-lysine coated 384-well plates (BD Biosciences) at a density of 5,000 cells per well in culture medium and grown overnight in 5% CO2 at 37° C. On the day of assay growth media were removed and cells were loaded with BD calcium assay dye (BD Biosciences) for 35 min at 37° C. under 5% CO2 and then for 25 min at room temperature. Utilizing the FDSS, cells were exposed to representative compounds of Formula (I) at varying concentrations and intracellular calcium was measured for 5 min prior to the addition of 50 mM KCl for an additional 3 min of measurement.
Maximal fluorescence intensity (FI) achieved upon addition of 50 mM KCl was exported from the FDSS software and further analyzed using GraphPad Prism 4 (Graph Pad Software Inc., CA, U.S.A.). Data were normalized to the maximum average counts from quadruplicate wells for each condition in the presence of 50 mM KCl and to the minimum average counts in the presence of buffer. Theoretical curves were generated using nonlinear regression curve-fitting analysis of either sigmoidal concentration-response or sigmoidal concentration-response (variable slope), and the IC50 values with the best-fit dose curve determined by GraphPad Prism were reported.

IC50 [2] [nM]	Compound	QPatch % Inhibition, High Freq [1] [%]	QPatch % Inhibition, Low Freq [1] [%]
1	COc1ccccc1-n1nc(C2CC(C)(C)OC(C)(C)C2)cc1-c1ccc(Cl)cc1F [Compound 3, 5-(4-Chloro-2-fluorophenyl)-1-(2-methoxyphenyl)-3-(2,2,6,6-tetramethyltetrahydro-2H-pyran-4-yl)-1H-pyrazole]	42	34
72	COc1ncc(-c2cc(C3CC(C)(C)OC(C)(C)C3)nn2-c2ccccc2OC)cn1 [Compound 39, 2-Methoxy-5-[1-(2-methoxyphenyl)-3-(2,2,6,6-tetramethyltetrahydro-2H-pyran-4-yl)-1H-pyrazol-5-yl]pyrimidine]		
100	CC1(C)CC(c2cc(-c3ccc(Cl)cc3)n(-c3ccccc3N3CCCC3)n2)CC(C)(C)O1 [Compound 76, 5-(4-Chlorophenyl)-1-(2-pyrrolidin-1-ylphenyl)-3-(2,2,6,6-tetramethyltetrahydro-2H-pyran-4-yl)-1H-pyrazole]		
110	COc1ccccc1-n1nc(C2CC(C)(C)OC(C)(C)C2)cc1-c1ncc(C)s1 [Compound 38, 2-[1-(2-Methoxyphenyl)-3-(2,2,6,6-tetramethyltetrahydro-2H-pyran-4-yl)-1H-pyrazol-5-yl]-5-methyl-1,3-thiazole]		
120	COc1cncc(-c2cc(C3CC(C)(C)OC(C)(C)C3)nn2-c2ccccc2OC)c1 [Compound 34, 3-Methoxy-5-[1-(2-methoxyphenyl)-3-(2,2,6,6-tetramethyltetrahydro-2H-pyran-4-yl)-1H-pyrazol-5-yl]-pyridine]		
53	Clc1ccc(-c2cc(C3CCOCC3)nn2-c2ccccc2Cl)cc1 [Compound 74, 1-(2-Chlorophenyl)-5-(4-chlorophenyl)-3-(tetrahydro-2H-pyran-4-yl)-1H-pyrazole]		
143	COc1ccccc1-n1nc(C2CC(C)(C)OC(C)(C)C2)cc1-c1ccccc1NC(C)=O [Compound 36, N-{2-[1-(2-Methoxyphenyl)-3-(2,2,6,6-tetramethyltetrahydro-2H-pyran-4-yl)-1H-pyrazol-5-yl]-phenyl}-acetamide]		
58	COc1cc(OC)cc(-c2cc(C3CC(C)(C)OC(C)(C)C3)nn2-c2ccccc2OC)c1 [Compound 43, 5-(3,5-Dimethoxyphenyl)-1-(2-methoxyphenyl)-3-(2,2,6,6-tetramethyltetrahydro-2H-pyran-4-yl)-1H-pyrazole]		
270	CCN(CC)C(=O)c1ccc(-c2cc(C3CC(C)(C)OC(C)(C)C3)nn2-c2ccccc2OC)cc1 [Compound 40, N,N-Diethyl-4-[1-(2-methoxyphenyl)-3-(2,2,6,6-tetramethyltetrahydro-2H-pyran-4-yl)-1H-pyrazol-5-yl]-benzamide]		
58	COc1ccc(-c2cc(C3CC(C)(C)OC(C)(C)C3)nn2-c2ccccc2OC)cc1OC [Compound 29, 5-(3,4-Dimethoxyphenyl)-1-(2-methoxyphenyl)-3-(2,2,6,6-tetramethyltetrahydro-2H-pyran-4-yl)-1H-pyrazole]		
200	Clc1ccc(-c2cc(C3CCOCC3)nn2-c2c(Cl)cccc2Cl)cc1 [Compound 80, 5-(4-Chlorophenyl)-1-(2,6-dichlorophenyl)-3-(tetrahydro-2H-pyran-4-yl)-1H-pyrazole]		
180	FC(F)(F)Oc1ccccc1-n1nc(C2CCOCC2)cc1-c1ccc(Cl)cc1 [Compound 79, 5-(4-Chlorophenyl)-3-(tetrahydro-2H-pyran-4-yl)-1-[2-(trifluoromethoxy)phenyl]-1H-pyrazole]		
400	COc1ccccc1-n1nc(C2CC(C)(C)OC(C)(C)C2)cc1-c1ccc(OCCn2ccnc2)cc1 [Compound 81, 5-{4-[2-(1H-Imidazol-1-yl)ethoxy]phenyl}-1-(2-methoxyphenyl)-3-(2,2,6,6-tetramethyltetrahydro-2H-pyran-4-yl)-1H-pyrazole]		
1.2	CC(C)Oc1ccccc1-n1nc(C2CC(C)(C)OC(C)(C)C2)cc1-c1ccc(Cl)cc1 [Compound 7, 5-(4-Chlorophenyl)-1-[2-(1-methylethoxy)phenyl]-3-(2,2,6,6-tetramethyltetrahydro-2H-pyran-4-yl)-1H-pyrazole]		

Compound	IC50 [2] [nM]	QPatch % Inhibition, High Freq [1] [%]	QPatch % Inhibition, Low Freq [1] [%]
COc1ccccc1-n1nc(C2=CC(C)(C)OC(C)(C)C2)cc1-c1ccc(Cl)cc1 [Compound 95, 5-(4-Chlorophenyl)-1-(2-methoxyphenyl)-3-(2,2,6,6-tetramethyl-3,6-dihydro-2H-pyran-4-yl)-1H-pyrazole]	3.4	26	14
COc1ccccc1-n1nc(C2CC(C)(C)OC(C)(C)C2)cc1-c1ccc(C#N)cc1 [Compound 2, 4-[1-(2-Methoxyphenyl)-3-(2,2,6,6-tetramethyltetrahydro-2H-pyran-4-yl)-1H-pyrazol-5-yl]-benzonitrile]	1.1	53.5	56.5
COc1ccccc1-n1nc([C@@H]2CCO[C@@H](C(C)C)C2)cc1-c1ccc(Cl)cc1 (relative stereo) [Compound 69, 5-(4-Chlorophenyl)-1-(2-methoxyphenyl)-3-[(trans)-2-(1-methylethyl)tetrahydro-2H-pyran-4-yl]-1H-pyrazole]	20		
CC(C)(C)Oc1ccccc1-n1nc(C2CC(C)(C)OC(C)(C)C2)cc1-c1ccc(Cl)cc1 [Compound 48, 1-(2-tert-Butoxyphenyl)-5-(4-chlorophenyl)-3-(2,2,6,6-tetramethyltetrahydro-2H-pyran-4-yl)-1H-pyrazole]	110		
COc1ccccc1-n1nc(C2CCOCC2)cc1-c1ccc(Cl)cc1 [Compound 71, 5-(4-Chlorophenyl)-1-(2-methoxyphenyl)-3-(tetrahydro-2H-pyran-4-yl)-1H-pyrazole]	31		
